# Results: patent publication US11331312B2, “Treatment of H-Ras-driven tumors” (MEMORIAL SLOAN-KETTERING CANCER CENTER, priority 2014, dated 2022)
# “Also recorded” adds a separate entry of the source.
# Tests used:
# [1] = system: Hras-G12V+/+/p53-null thyroid cancers; experiment: 2-week FTI treatment of mice with thyroid cancers, tumor volume by 3D ultrasound; format: in vivo, mouse; conditions: 80 mg/kg twice daily by gavage, 2 weeks (14 days)
# Method: FIG. 3 is a schematic showing the design of the in vivo study of tipifarnib in Tpo-Cre/FR-Hras^G12V/p53^flox/flox mice. Mice were treated for 14 days with tipifarnib 80 mg/kg BID by gavage. Tipifarnib was prepared in 20% beta-cyclodextran. 3D ultrasound was performed before and after treatment to assess percent change in tumor volume.
# Tumors in each treatment group were sized matched at the beginning of therapy.
# FIG. 5 is a waterfall plot of the same mice but with an additional cohort of mice treated with lonafarnib added. Of note the lonafarnib treated mice were not size matched to the vehicle group.
# (§1) The activity of these compounds in vivo was explored. Mice were treated for 2 weeks with tipifarnib or lonafarnib at 80 mg/kg twice daily (drug mixed in 20% beta-cyclodextran and given by gavage). […] Treatment with FTIs was well tolerated in the mice with no significant differences in animal weight between vehicle and drug at 14 days (FIG. 6). Next mice were treated with Tipifarnib or vehicle for an extended time course. Of note, for this experiment tumors in each group were size-matched at the time of treatment initiation (FIG. 8).
# HP-ATC1 cells = experiment: 6 day proliferation assay in HP-ATC1 mouse cell line; format: cell-based; conditions: 1.5% serum, 6 day assay, increasing concentrations of drug
# Method: (§2) FIGS. 2A and B show the results of exposure of mouse cell lines from tumor bearing Tpo-Cre/FR-HrasG12V/p53flox/flox mice to farnesyltransferase inhibitors. Mouse cell lines were generated from tumor bearing Tpo-Cre/FR-HrasG12V/p53flox/flox mice by collagenase/dispase digestion and maintained in Coon's F-12 media with serum. After 15 passages, cells were plated in 1.5% serum and exposed to increasing concentrations of indicated drug. (A) Western blots were performed for indicated proteins (antibodies from Cell Signaling with exception of Hras which was from Santa Cruz).
# (§3) Development and characterization of mouse cell lines from TPO-Cre, Hras-G12V+/+, p53f/f mice: In order to study this model in vitro, we developed a mouse cell line (HP-ATC1) from an animal with ATC. The cell line was confirmed to harbor the HrasG12V mutation, and maintained primary tumor characteristics, including its spindle shape and the relative expression of E-cadherin and vimentin through serial passaging (x6-10).
# (§4) The FTIs Tipifarnib and Lonafarnib block MAPK signaling and growth of mouse Tpo-Cre, HRas-G12V+/+, p53f/f cell line: There are currently no therapies that directly target oncogenic forms of oncogenic Ras.
# (§5) Mouse cell lines were generated from tumor bearing Tpo-Cre/FR-HrasG12V/p53flox/flox mice by collagenase/dispase digestion and maintained in Coon's F-12 media with serum. […]
# [2] = system: MAPK pathway signaling effectors; experiment: Western blots of MAPK pathway signaling effectors in HP-ATC1 mouse cell line; format: cell-based; conditions: HP-ATC1 cells, 1.5% serum, increasing concentrations of drug, Western blot
# Method: as §2, §3, §4, §5
# [3] = Body weight and tolerability of treated mice; format: in vivo, mouse; conditions: 80 mg/kg BID
# Method: as §1
Compound,change in thyroid tumor volume (ultrasound) compared to vehicle-treated mice [1],inhibition of proliferation (HP-ATC1 cells),inhibition of MAPK effector phosphorylation [2],"animal weight, drug vs vehicle ([3]; 14 days)",toxicity / tolerability ([3]; two weeks of treatment)
NC(=O)N1CCC(CC(=O)N2CCC([C@H]3c4ncc(Br)cc4CCc4cc(Cl)cc(Br)c43)CC2)CC1 [lonafarnib],Consistent inhibition of growth; also recorded: Significant reduction in thyroid tumor volume,dose-dependent inhibition of proliferation,dose-dependent inhibition,,
Cn1cncc1[C@@](N)(c1ccc(Cl)cc1)c1ccc2c(c1)c(-c1cccc(Cl)c1)cc(=O)n2C [tipifarnib],,,,No differences,minimal toxicity
